The nature of test [1]: Activation of procaspase-3 (unknown origin). The arrangement: species or system Homo sapiens.
The nature of test [2]: Activation of sGC (unknown origin). Also on record: species or system Homo sapiens.
In a further test the target is N-glycosylase/DNA lyase (Homo sapiens, UniProt O15527). Kind of test: Activation of OGG1 (unknown origin) by fluorescence-based assay.
A further test has as its system SUM-159-PT. As to the kind of experiment: cells. As to conditions: Homo sapiens, 72 h.
Test [3] deals with MDA-MB-231. Kind of test: cells. To be noted: Homo sapiens, MDA-MB-231, 72 h.
Description: Antiproliferative activity against human MDA-MB-231 cells assessed as inhibition of cell growth incubated for 72 hrs by Hoechst stain-based assay
The target of test [4] is Insulin-degrading enzyme (Homo sapiens) (UniProt P14735). Kind of test: Activation of IDE (unknown origin) using FRET1 as substrate at 200 uM by SpectraMax M5 multilabel plate reader analysis relative to control. As to conditions: filed as activator.
For test [5] the target is unchanged. Kind of test: Activation of IDE (unknown origin) using SP1 as substrate in presence of ATP by SpectraMax M5 multilabel plate reader analysis relative to control. To be noted: filed as activator.
The target in test [6] is Angiotensin-converting enzyme 2 (Homo sapiens, UniProt Q9BYF1). Kind of test: Activation of recombinant human ACE2 using McaAPK(Dnp)-OH as substrate preincubated for 15 mins followed by substrate addition spectra max Gemini M5 fluorescence plate reader analysis.
Test [7] concerns the target T1, Glucose-6-phosphate 1-dehydrogenase (Homo sapiens, UniProt P11413). As to the kind of experiment: Activation of G6PD (unknown origin) expressed in Escherichia coli C43(DE3) cells using G6P as substrate in presence of NADP+ by resazurin dye-based assay.
The target of test [8] is T1, Glucose-6-phosphate 1-dehydrogenase. As to the kind of experiment: Activation of G6PD dimerization in lymphocytes isolated from G6PD-deficient patient carrying canton variant expressed in Escherichia coli C43(DE3) cells using G6P as substrate assessed as increase in lysate activity in presence of NADP+ by resazurin dye based fluorescence assay relative to control. Format: subcellular. As to conditions: Lymphocyte, filed as activator.

In test [9] the target is T2, Carnitine O-palmitoyltransferase 1, liver isoform (Homo sapiens) (UniProt P50416).
T2 sequence (whole entry): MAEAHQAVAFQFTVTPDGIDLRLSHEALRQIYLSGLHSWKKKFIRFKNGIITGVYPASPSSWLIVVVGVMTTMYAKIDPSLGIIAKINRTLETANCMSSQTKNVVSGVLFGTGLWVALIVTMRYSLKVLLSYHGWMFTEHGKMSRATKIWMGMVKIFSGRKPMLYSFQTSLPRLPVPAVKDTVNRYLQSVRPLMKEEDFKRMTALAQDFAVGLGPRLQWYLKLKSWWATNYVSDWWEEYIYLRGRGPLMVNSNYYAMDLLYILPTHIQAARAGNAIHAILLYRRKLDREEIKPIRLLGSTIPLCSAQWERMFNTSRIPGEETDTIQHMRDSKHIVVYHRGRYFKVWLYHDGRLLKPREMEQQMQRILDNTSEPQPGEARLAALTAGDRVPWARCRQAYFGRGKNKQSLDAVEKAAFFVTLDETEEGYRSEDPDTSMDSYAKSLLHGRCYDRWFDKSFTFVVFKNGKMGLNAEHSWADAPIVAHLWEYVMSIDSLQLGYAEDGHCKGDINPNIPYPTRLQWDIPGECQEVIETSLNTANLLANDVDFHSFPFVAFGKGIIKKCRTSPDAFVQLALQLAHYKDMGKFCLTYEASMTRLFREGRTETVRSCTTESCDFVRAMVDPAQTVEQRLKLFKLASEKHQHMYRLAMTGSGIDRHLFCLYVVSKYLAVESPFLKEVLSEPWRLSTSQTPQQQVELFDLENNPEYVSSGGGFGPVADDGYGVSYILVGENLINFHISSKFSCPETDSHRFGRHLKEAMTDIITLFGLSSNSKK
As to the kind of experiment: Activation of CPT-1 in human HeLa cells assessed as fold increase at 100 uM incubated for 10 mins relative to control. In kind it is cell-based. To be noted: filed as activator.

Test [10] deals with Mus musculus. As to the kind of experiment: Anti-obesity activity against diet-induced obese mouse expressing CPT-1 H327E mutant assessed as reduction in body weight at 400 mg/kg, IG administered for 12 week. Format: functional. To be noted: time 12 weeks.
Test [11] deals with Mus musculus. Kind of test: Anti-obesity activity against diet-induced obese mouse expressing CPT-1 H327E mutant assessed as reduction in body fat percentage at 400 mg/kg, IG administered for 12 week relative to control. In kind it is functional. The arrangement: scale not given: the % may be the effect or the level left. As to conditions: time 12 weeks.
Test [12] addresses T2, Carnitine O-palmitoyltransferase 1, liver isoform (Homo sapiens). As to the kind of experiment: Activation of CPT-1 in human HeLa cells assessed as reduction in free fatty acid at 100 uM incubated for 10 mins relative to control. Format: cell-based. Also on record: scale not given: the % may be the effect or the level left. As to conditions: filed as activator.
The test system of the next test is A549. As to the kind of experiment: Anti-oxidative activity in human A549 cells assessed as reduction in cell injury relative to control. In kind it is functional. Also on record: scale not given: the % may be the effect or the level left.
In a further test the test system is BT-474. Kind of test: Cytotoxicity against human BT-474 cells assessed as inhibition of cell growth incubated for 24 hrs by MTS assay. Format: functional, cell-based. As to conditions: BT-474, 24 h. On the technique in general: Tetrazolium assays rely on reduction of a dye to a coloured formazan, in cell work by metabolically active cells.
In test [13] the test system is MDA-MB-231. As to the kind of experiment: Cytotoxicity against human MDA-MB-231 cells assessed as inhibition of cell growth incubated for 24 hrs by MTS assay. To be noted: MDA-MB-231, 24 h. Format: functional, cell-based.
Test [14] addresses Indoleamine 2,3-dioxygenase 1 (Mus musculus, UniProt P28776). Kind of test: Positive allosteric modulation of recombinant mouse IDOL transfected in mouse P1.HTR cells assessed as increase in Kyn production incubated for 24 hrs. Format: cell-based.
Test [15] concerns the target Indoleamine 2,3-dioxygenase 1 (Homo sapiens, UniProt P14902). Kind of test: Positive allosteric modulation of recombinant human IDOL transfected in mouse P1.HTR cells assessed as increase in Kyn production incubated for 24 hrs. In kind it is cell-based.
A further test concerns NCI-H3255. As to the kind of experiment: Cytotoxicity against TKI-sensitive LUAD immortalized human NCI-H3255 cells assessed as inhibition of cell growth incubated for 48 hrs by Beckman Coulter cell counter analysis. To be noted: NCI-H3255, 48 h. Format: functional, cell-based.
The next test relates to NCI-H1650. Kind of test: Cytotoxicity against d TKI-resistant LUAD human NCI-H1650 cells assessed as inhibition of cell growth incubated for 48 hrs by Beckman Coulter cell counter analysis. As to conditions: NCI-H1650, 48 h. In kind it is functional, cell-based.
Test [16] has as its system NCI-H1975. Kind of test: Cytotoxicity against d TKI-resistant LUAD human NCI-H1975 cells assessed as inhibition of cell growth incubated for 48 hrs by Beckman Coulter cell counter analysis. Format: functional, cell-based. As to conditions: NCI-H1975, 48 h.
The next test relates to HCC827. Kind of test: Cytotoxicity against TKI-sensitive LUAD immortalized human HCC827 cells assessed as inhibition of cell growth incubated for 48 hrs by Beckman Coulter cell counter analysis. As to conditions: HCC827, 48 h. Format: functional, cell-based.
For test [17], the system named is NCI-H1975. Kind of test: Antitumor activity against human NCI-H1975 cells xenografted in mouse model assessed as fold decrease in tumor growth. In kind it is functional. In general terms: In xenograft studies the graft and the host belong to different species.
The species entered for the next test is Homo sapiens. As to the kind of experiment: Activation of recombinant sGC (unknown origin) assessed as fold increase.
Test [18] is described as follows: Activation of recombinant human procaspase-3 using Ac-DEVD-pNA as substrate preincubated for 12 hrs followed by substrate addition by absorbance based assay.
The target of test [19] is Insulin-degrading enzyme (Homo sapiens) (UniProt P14735). As to the kind of experiment: Activation of IDE (unknown origin) using FRET1 as substrate at 6.25 uM by SpectraMax M5 multilabel plate reader analysis relative to control. To be noted: filed as activator.
Test [20] can be described thus: Protection against rotenone-induced stress in human Induced pluripotent stem cell-derived neuron cells relative to control. In kind it is functional.
Test [21] has as its target 3',5'-cyclic-AMP phosphodiesterase 4D (Homo sapiens, UniProt Q08499). As to the kind of experiment: Activation of PDE4D5 (unknown origin).

This note sets out measurements from ChEMBL document CHEMBL5375949, “The evolution of small molecule enzyme activators” (RSC Med Chem, 2023).

As a reminder, the EC50 is the concentration giving half of the maximal effect. A word on the IC50: it is the concentration needed to halve the response being measured.

Sequence of Insulin-degrading enzyme (Homo sapiens) (P14735 whole entry): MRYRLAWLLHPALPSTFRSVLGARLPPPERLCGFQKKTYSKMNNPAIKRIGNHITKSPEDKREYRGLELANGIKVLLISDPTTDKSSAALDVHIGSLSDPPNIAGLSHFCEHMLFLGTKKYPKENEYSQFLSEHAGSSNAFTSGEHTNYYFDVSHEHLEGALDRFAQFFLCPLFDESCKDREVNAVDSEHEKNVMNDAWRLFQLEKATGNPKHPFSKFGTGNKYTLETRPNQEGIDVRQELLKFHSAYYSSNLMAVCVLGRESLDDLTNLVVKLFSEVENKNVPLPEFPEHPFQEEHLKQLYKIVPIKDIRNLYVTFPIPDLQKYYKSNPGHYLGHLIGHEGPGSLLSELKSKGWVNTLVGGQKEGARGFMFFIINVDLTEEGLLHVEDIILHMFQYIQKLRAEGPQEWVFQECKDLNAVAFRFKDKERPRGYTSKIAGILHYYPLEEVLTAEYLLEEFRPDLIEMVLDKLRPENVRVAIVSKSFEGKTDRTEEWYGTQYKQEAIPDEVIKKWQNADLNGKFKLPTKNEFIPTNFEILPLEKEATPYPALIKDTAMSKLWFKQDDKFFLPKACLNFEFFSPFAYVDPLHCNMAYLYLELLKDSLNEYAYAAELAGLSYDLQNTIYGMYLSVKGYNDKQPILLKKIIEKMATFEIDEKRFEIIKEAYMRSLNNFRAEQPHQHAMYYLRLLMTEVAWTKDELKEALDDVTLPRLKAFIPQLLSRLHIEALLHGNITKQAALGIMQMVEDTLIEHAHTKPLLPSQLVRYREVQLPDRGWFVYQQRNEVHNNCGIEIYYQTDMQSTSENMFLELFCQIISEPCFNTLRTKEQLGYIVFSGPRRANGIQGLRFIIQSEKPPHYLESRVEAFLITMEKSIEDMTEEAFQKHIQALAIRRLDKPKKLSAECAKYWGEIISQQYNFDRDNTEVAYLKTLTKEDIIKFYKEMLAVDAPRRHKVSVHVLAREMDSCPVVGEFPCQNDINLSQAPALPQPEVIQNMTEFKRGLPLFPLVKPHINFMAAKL
Sequence of N-glycosylase/DNA lyase (O15527 whole entry): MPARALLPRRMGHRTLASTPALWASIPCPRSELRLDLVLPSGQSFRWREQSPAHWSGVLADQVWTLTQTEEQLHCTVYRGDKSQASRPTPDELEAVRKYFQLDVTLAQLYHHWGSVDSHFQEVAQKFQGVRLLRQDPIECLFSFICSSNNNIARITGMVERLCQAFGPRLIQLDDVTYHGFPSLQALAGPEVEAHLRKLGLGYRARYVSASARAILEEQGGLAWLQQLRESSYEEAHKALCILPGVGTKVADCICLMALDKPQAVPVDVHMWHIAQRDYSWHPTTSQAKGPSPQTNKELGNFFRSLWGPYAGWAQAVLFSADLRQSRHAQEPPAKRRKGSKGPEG
Sequence of Angiotensin-converting enzyme 2 (Q9BYF1 whole entry): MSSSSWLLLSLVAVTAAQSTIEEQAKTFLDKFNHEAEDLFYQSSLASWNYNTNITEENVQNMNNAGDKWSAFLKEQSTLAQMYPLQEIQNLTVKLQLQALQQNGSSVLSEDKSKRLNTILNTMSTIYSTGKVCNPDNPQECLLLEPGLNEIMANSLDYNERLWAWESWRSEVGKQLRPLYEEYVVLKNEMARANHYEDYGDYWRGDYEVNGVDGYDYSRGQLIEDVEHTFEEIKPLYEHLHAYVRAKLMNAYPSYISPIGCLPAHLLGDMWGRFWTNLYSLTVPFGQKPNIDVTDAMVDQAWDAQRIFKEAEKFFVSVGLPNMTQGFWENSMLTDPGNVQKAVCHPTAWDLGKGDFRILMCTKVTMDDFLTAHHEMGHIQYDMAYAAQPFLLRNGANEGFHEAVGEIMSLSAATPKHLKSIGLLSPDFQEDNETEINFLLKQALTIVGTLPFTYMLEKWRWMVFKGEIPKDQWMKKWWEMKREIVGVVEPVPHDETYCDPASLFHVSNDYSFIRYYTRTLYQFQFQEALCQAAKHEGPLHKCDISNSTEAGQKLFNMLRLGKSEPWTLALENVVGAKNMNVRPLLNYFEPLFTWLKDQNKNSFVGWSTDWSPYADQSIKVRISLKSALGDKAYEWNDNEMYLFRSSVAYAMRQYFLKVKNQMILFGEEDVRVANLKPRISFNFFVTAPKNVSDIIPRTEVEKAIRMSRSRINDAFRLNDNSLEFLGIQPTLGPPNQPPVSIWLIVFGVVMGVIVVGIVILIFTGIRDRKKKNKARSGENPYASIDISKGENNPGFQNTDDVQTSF
T1 sequence (P11413 whole entry): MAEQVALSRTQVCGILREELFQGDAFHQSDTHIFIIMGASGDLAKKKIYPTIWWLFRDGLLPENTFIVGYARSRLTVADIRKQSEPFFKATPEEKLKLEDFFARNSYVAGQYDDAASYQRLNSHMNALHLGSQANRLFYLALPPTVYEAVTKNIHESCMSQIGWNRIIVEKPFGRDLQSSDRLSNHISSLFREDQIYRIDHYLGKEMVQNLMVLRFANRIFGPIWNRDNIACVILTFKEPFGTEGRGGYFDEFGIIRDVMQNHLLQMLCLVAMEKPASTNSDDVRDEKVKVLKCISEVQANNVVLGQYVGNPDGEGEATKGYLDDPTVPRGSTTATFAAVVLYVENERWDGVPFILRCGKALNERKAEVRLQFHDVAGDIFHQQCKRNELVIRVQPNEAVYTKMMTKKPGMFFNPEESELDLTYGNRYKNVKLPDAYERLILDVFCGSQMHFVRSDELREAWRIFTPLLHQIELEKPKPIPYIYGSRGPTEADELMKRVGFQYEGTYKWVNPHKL
Sequence of 3',5'-cyclic-AMP phosphodiesterase 4D (Q08499 whole entry): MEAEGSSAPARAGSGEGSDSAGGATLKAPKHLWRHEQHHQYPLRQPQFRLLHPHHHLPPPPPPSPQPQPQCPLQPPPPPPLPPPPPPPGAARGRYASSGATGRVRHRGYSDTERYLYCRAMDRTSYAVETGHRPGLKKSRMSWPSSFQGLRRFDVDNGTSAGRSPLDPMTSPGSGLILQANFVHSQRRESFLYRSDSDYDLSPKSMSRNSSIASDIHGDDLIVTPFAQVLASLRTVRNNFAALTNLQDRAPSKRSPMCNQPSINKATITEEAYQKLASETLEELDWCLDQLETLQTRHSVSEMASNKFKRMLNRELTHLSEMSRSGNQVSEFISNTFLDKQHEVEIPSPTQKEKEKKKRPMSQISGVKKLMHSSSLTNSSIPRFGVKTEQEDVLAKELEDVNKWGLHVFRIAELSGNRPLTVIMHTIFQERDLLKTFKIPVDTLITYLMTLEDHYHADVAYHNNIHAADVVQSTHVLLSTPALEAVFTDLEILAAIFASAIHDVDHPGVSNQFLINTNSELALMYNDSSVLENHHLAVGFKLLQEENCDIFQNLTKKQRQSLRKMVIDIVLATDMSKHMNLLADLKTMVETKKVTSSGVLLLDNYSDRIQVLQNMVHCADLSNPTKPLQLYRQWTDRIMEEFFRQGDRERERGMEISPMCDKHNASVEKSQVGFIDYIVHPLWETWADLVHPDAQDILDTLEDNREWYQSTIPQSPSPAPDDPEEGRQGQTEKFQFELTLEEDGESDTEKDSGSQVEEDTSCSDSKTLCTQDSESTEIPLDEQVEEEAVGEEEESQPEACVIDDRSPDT
Sequence of Indoleamine 2,3-dioxygenase 1 (Mus musculus, UniProt P28776) (P28776 whole entry): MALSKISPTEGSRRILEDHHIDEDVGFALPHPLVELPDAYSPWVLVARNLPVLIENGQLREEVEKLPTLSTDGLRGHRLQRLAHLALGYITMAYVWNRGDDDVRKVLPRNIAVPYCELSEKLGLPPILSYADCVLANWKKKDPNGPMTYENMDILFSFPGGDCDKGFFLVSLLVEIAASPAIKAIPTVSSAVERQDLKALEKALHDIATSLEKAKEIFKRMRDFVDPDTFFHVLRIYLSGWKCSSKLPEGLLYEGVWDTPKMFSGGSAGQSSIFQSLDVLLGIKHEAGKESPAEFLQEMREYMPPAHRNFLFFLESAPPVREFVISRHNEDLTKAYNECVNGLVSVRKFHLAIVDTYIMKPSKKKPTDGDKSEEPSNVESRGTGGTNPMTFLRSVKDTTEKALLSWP
Sequence of Indoleamine 2,3-dioxygenase 1 (Homo sapiens, UniProt P14902) (P14902 whole entry): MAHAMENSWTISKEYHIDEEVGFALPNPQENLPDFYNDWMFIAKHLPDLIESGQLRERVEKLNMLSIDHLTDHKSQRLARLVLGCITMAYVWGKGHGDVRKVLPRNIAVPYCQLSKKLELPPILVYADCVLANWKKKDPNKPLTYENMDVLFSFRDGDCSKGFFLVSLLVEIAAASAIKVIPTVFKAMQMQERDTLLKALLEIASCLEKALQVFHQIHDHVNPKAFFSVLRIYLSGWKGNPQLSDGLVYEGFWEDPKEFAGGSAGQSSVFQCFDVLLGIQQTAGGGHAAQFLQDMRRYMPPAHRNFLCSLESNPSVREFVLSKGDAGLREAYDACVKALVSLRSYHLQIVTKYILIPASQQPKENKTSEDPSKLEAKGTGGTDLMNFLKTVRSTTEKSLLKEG
Description for SUM-159-PT: Antiproliferative activity against human SUM159 cells assessed as inhibition of cell growth incubated for 72 hrs by Hoechst stain-based assay

`O=C(Nc1cccc(-c2cn3ccccc3n2)c1)c1cc2cccc(O)c2oc1=O` returned an EC50 in [1] of 1300 nM. As for `Fc1ccccc1Cc1nc(-c2nc(C(F)(F)F)n[nH]2)cn2ccnc12` [ZAGOCIGUAT], in test [2], the midpoint of the response, the EC50, lay at 66 nM. `Cc1cc(N[C@@H](C)C(=O)Nc2ccccc2)nc(Nc2ccccc2)n1` registered an EC50 at N-glycosylase/DNA lyase of 4.1 µM. In the case of `N#Cc1cccc(CN2CCc3ncn(Cc4ccc(Cl)cc4)c(=O)c3C2)c1`, the figures for the half-inhibitory concentration (IC50) with SUM-159-PT and with MDA-MB-231 [3] were 12 nM and 3 nM, respectively. `O=C1CC(c2ccc(Cl)cc2)CC(=O)C1/C=N/OCc1nnsc1Cl` (stereo unspecified): the Activity in [4] worked out at 500%; in test [5], 1000%.

Turning to `Cc1cnc(N2CCN3CCCC3C2)nc1Oc1ccc(-n2ccnc2)cc1` (stereo unspecified), the response on N-glycosylase/DNA lyase was half-maximal at 4.6 µM (EC50). For the compound `N=C(N)c1ccc(/N=N/Nc2ccc(C(=N)N)cc2)cc1` [DIMINAZENE], the EC50 in test [6] amounted to 8.04 µM. With `c1ccc2c(CCNCCSSCCNCCc3c[nH]c4ccccc34)c[nH]c2c1`, the EC50 in test [7] was determined as 800 nM. The Activity in [8] turned out to be 78%. Regarding `O=C1OC2(c3ccc(O)cc3Oc3cc(O)ccc32)c2ccccc21` [FLUORESCEIN], in [6], the EC50 is 19.5 µM. Regarding `O=C(O)[C@H]1O[C@@H](Oc2cc3oc(-c4ccccc4)cc(=O)c3c(O)c2O)[C@H](O)[C@@H](O)[C@@H]1O` [BAICALIN], the fold change (FC) in test [9] is 7. For the same compound, the results for the Activity (in the test with Mus musculus [10]; with Mus musculus [11]; in test [12]) were -12.5 g, -0.085% and 50%, respectively. Compound `CNc1nnc(C)c2c1cc(-c1ccc(F)cc1)n2C` had an EC50 at N-glycosylase/DNA lyase of 5.1 µM. The Activity in the test with A549 is given as 200%. For the compound `CCCCCCCCc1ccc(CCC(N)(CO)CO)cc1` [FINGOLIMOD], the figures for the IC50 in the test on BT-474 and with MDA-MB-231 [13] were 8.5 µM and 2900 nM, respectively. Regarding `CC(=O)NCCc1c[nH]c2ccc(O)cc12` [ACETYLSEROTONIN], the EC50 in test [14] came out at 19.6 µM; in test [15] it was 20.9 µM. Consider `O=S(=O)(N[C@@H]1CCCC(N2c3ccccc3Oc3ccccc32)[C@H]1O)c1ccc(OC(F)(F)F)cc1` (stereo partly specified), for which the half-maximal inhibitory concentration (IC50) is 12.4 µM in the test on NCI-H3255, 10.6 µM in the test with NCI-H1650, 10.6 µM in the test on NCI-H1975 [16] and 14.3 µM in the test on HCC827. In the test on NCI-H1975 [17], the “fold change (FC)” value is 2. Consider `OC(Cn1ccnc1)(c1ccc(Cl)cc1Cl)C1CCCCC1` (stereo unspecified), for which a half-maximal effect at N-glycosylase/DNA lyase (EC50) was put at 5 µM. The Activity with A549 amounted to 650%.

Consider `c1ccc2c(NC3CCCCC3)nc(C3CC3)nc2c1`, for which the EC50 on N-glycosylase/DNA lyase turned out to be 0.78 µM. `COC(=O)N(C)c1c(N)nc(-c2nn(Cc3ccccc3F)c3ncccc23)nc1N`: in the test filed under Homo sapiens, the fold change (FC) was below 73.

As to `O=C(CN1CCN(Cc2nc(-c3ccc(COc4ccc(F)cc4)cc3)no2)CC1)N/N=C/c1ccc(OCc2csc(Cc3ccc4c(c3)OCO4)n2)cc1O`, in test [18], the EC50 is 950 nM.

`O=C(Nc1ccc(S(=O)(=O)N2CCOCC2)cc1)c1cc(Cl)ccc1NS(=O)(=O)c1ccc(Cl)s1` displayed an EC50 in test [2] of 500 nM. As to `O=C(Nc1cccc(Cl)c1)N1CCC(c2cc(-c3ccco3)[nH]n2)CC1`, the Activity in test [19] was found to be 60%.

Regarding `O=C(c1cc(O)c(O)c(O)c1)c1ccc(O)c(O)c1O` [EXIFONE], the Activity in [20] came to 80%. As for `CCc1nc(-c2ccc(Cl)c(F)c2)nn1CC(=O)NCc1cc(Cl)cc(Cl)c1`, the EC50 in test [21] was determined as 1200 nM.
